# Source: US20190269705A1, “METHODS AND MATERIALS FOR TREATING GRAFT VERSUS HOST DISEASE” (Regents of the University of Minnesota, priority 2017, published 2019)
# Entries after “also recorded” stand apart in the source; their conditions may differ.
# Key:
# stimulated CD4+ T cells = assay: 13C-glucose tracing of stimulated CD4 T cells (LC-HRMS); type: cell-based, mouse; conditions: 1 μM CB839, 13C-glucose, 24 hours
# Experimental: ^13C-Glucose Activation: CD4 cells were activated on 5 μg/mL αCD3/CD28 for 3 days. At day 3, cells were pooled, washed 3× in PBS, and re-stimulated in presence of 1 μM CB839 or Vehicle (DMSO) and 11 mM ^13C glucose (Cambridge Isotope Labs, Cat #: CLM-1396-1). Cells were incubated for 24 hours at 37° C., then scraped and combined in triplicate. Cells were rinsed with 0.9% saline and metabolites were extracted in methanol. Metabolites measured by LC-High-Resolution Mass Spectrometer (LC-HRMS) using a Q-exactive machine. The time-dependent glucose labeling pattern was modeled as with the following equation: […]
# ^13C Tracing. To measure 13C-Glucose tracing in T cell activation, CD4 cells were stimulated on 5 μg/mL anti-CD3/CD28 for 3 days. At day 3, cells were pooled, washed 3× in PBS, and re-stimulated in presence of 1 uM CB839 or Vehicle (DMSO) and 11 mM 13C glucose (Cambridge Isotope Labs, Cat #: CLM-1396-1). Cells were incubated for 24 hours at 37 °C, then scraped and combined in triplicate. Cells were rinsed with 0.9% saline and metabolites were extracted in methanol. Metabolites measured by LC High-Resolution Mass Spectrometer (LC-HRMS) using a Q-Exactive machine as previously described(Liberti et al., 2017). The time-dependent glucose labeling pattern was modeled as with the following equation: […]
# Th17 cells = assay: RNA-Seq and gene set enrichment analysis, Th17; type: cell-based, mouse
# Experimental: ATAC-Seq: Crude nuclei pellets were isolated as described elsewhere (see, e.g., Buenrostro et al., 2013 Nat Meth. 10(12):1213-1218) with modifications. Briefly, naïve CD4 T cells were skewed to Th1 and Th17 subsets in vitro with vehicle or in the presence of 500 nM CB839. At Day 5, T cells were re-isolated for CD4+ cells using Miltenyi CD4+ negative selection kit (Cat #: 130-104-454). 1×10^5 cells were removed for nuclei extraction in ATAC-Seq lysing buffer. Cells were exposed to Tn5+ adaptor proteins from Nextera DNA for 30 min at 37° C. and immediately placed on ice. Transposed eluate was amplified via PCR using Nextera DNA preparation kit (Illumina, Cat #: FC-121-1030), NEBNext High-fidelity 2× PCR mix (New England Labs, Cat #: M0541), and multiplexed (Illumina, Cat #: FC-121-1011). Samples were purified using Zymo DNA cleanup kit (Cat #: D4011). QC of samples was run on bioanalyzer before being sent for sequencing. RNA-Seq: Th1 and Th17 cells skewed with or without CB839 were isolated as previously described and total RNA extracted (Qiagen RNEasy Mini kit, Cat #: 74104). RNA was sent to VANTAGE core at Vanderbilt University and sequenced on HiSeq 2500. n=3 for each sample was analyzed. Samples were analyzed using the R program DESeq2. GSEA was performed using MSigDB.
# Th1 and Th17 cells were skewed with or without CB839 over 5 days and total RNA extracted for RNAseq (Cat #: 74104). RNA was sent to VANderbilt Technologies for Advanced GEnomics (VANTAGE) core at Vanderbilt University. Libraries were prepared using 50 ng of total RNA using the NEBNext Ultra RNA Library Kit for Illumina (Cat #E7530) and sequenced on HiSeq3000 at 75 bp paired-end. Each sample was analyzed in triplicate. Sequencing reads were aligned against the Mouse GENCODE genome, Version M14 (Jan. 2017 freeze, GRCm38, Ensembl 89) using the Spliced Transcripts Alignment to a Reference (STAR) software (ref: 26187010 and 23104886). Reads were preprocessed and index using SAMtools (ref: 19505943). Mapped reads were assigned to gene features and quantified using featureCounts (ref: 24227677). Normalization and differential expression was performed using DESeq2 (Love et al., 2014). Skewed lymphocytes with and without CB839 were compared in both Th1 and Th17 groups. […] The top 200 most differentially expressed genes were used for unsupervised hierarchical cluster analysis and visualized using heatmap representations.
# [1] = Th17 Cells: Decreased Pathways, HALLMARK_CHOLESTEROL_HOMEOSTASIS
# [2] = Th17 Cells: Decreased Pathways, HALLMARK_E2F_TARGETS
# [3] = Th17 Cells: Decreased Pathways, HALLMARK_G2M_CHECKPOINT
# [4] = Th17 Cells: Decreased Pathways, HALLMARK_GLYCOLYSIS
# [5] = Th17 Cells: Decreased Pathways, HALLMARK_IL2_STAT5_SIGNALING
# [6] = Th17 Cells: Decreased Pathways, HALLMARK_MTORC1_SIGNALING
# [7] = Th17 Cells: Decreased Pathways, HALLMARK_MYC_TARGETS_V1
# [8] = Th17 Cells: Decreased Pathways, HALLMARK_MYC_TARGETS_V2
# [9] = Th17 Cells: Decreased Pathways, HALLMARK_TNFA_SIGNALING_VIA_NFKB
# [10] = Th17 Cells: Decreased Pathways, HALLMARK_UNFOLDED_PROTEIN_RESPONSE
# [11] = Th17 Cells: Increased Pathways, HALLMARK_APICAL_JUNCTION
# [12] = Th17 Cells: Increased Pathways, HALLMARK_COMPLEMENT
# [13] = Th17 Cells: Increased Pathways, HALLMARK_EPITHELIAL_MESENCHYMAL_TRANSITION
# [14] = Th17 Cells: Increased Pathways, HALLMARK_HYPOXIA
# [15] = Th17 Cells: Increased Pathways, HALLMARK_INFLAMMATORY_RESPONSE
# [16] = Th17 Cells: Increased Pathways, HALLMARK_INTERFERON_GAMMA_RESPONSE
# [17] = Th17 Cells: Increased Pathways, HALLMARK_MYOGENESIS
# [18] = Th17 Cells: Increased Pathways, HALLMARK_P53_PATHWAY
# [19] = Th17 Cells: Increased Pathways, HALLMARK_TNFA_SIGNALING_VIA_NFKB
# [20] = Th17 Cells: Increased Pathways, HALLMARK_XENOBIOTIC_METABOLISM
compound,measurement,setting,value
O=C(Cc1cccc(OC(F)(F)F)c1)Nc1ccc(CCCCc2nnc(NC(=O)Cc3ccccn3)s2)nn1 [CB839],N-carbamoyl-aspartate,stimulated CD4+ T cells,decreased
same,TCA intermediates fractional labeling with glucose-derived 13C,stimulated CD4+ T cells,increased fractional labeling
same,TCA intermediates overall abundance,stimulated CD4+ T cells,reduced in overall abundance
same,aspartate levels,stimulated CD4+ T cells,decreased significantly
same,glucose-derived 13C in glutamate and aspartate,stimulated CD4+ T cells,increased in both glutamate and aspartate
same,glutamate,stimulated CD4+ T cells,decreased glutamate
same,glycine abundance,stimulated CD4+ T cells,unchanged
same,glycolytic intermediates abundance,stimulated CD4+ T cells,more abundant
same,intracellular glutamine,stimulated CD4+ T cells,increased intracellular glutamine
same,lactate levels and 13C-labeling,stimulated CD4+ T cells,unchanged
same,pyruvate abundance,stimulated CD4+ T cells,decreased
same,serine and alanine abundance,stimulated CD4+ T cells,also decreased
same,compensation by GLS2 at the RNA level,"Th17 cells; Th17, CB839-treated",No compensation by GLS2 at the RNA level
same,direction of the 200 genes with the most altered expression,"Th17 cells; Th17, CB839 vs vehicle",more of the most changed genes were downregulated; also recorded: more of these genes were downregulated
same,"gene set enrichment: cell cycle, mTORC1, Myc, IL2 signaling pathways","Th17 cells; Th17, CB839 vs vehicle",downregulated
same,# Genes in Overlap (k),Th17 cells; [1],25
same,k/K,Th17 cells; [1],0.3378
same,# Genes in Overlap (k),Th17 cells; [2],107
same,k/K,Th17 cells; [2],0.535
same,# Genes in Overlap (k),Th17 cells; [3],94
same,k/K,Th17 cells; [3],0.47
same,# Genes in Overlap (k),Th17 cells; [4],31
same,k/K,Th17 cells; [4],0.155
same,# Genes in Overlap (k),Th17 cells; [5],39
same,k/K,Th17 cells; [5],0.195
same,# Genes in Overlap (k),Th17 cells; [6],70
same,k/K,Th17 cells; [6],0.35
same,# Genes in Overlap (k),Th17 cells; [7],75
same,k/K,Th17 cells; [7],0.375
same,# Genes in Overlap (k),Th17 cells; [8],31
same,k/K,Th17 cells; [8],0.5345
same,# Genes in Overlap (k),Th17 cells; [9],34
same,k/K,Th17 cells; [9],0.17
same,# Genes in Overlap (k),Th17 cells; [10],29
same,k/K,Th17 cells; [10],0.2566
same,# Genes in Overlap (k),Th17 cells; [11],19
same,k/K,Th17 cells; [11],0.095
same,# Genes in Overlap (k),Th17 cells; [12],17
same,k/K,Th17 cells; [12],0.085
same,# Genes in Overlap (k),Th17 cells; [13],16
same,k/K,Th17 cells; [13],0.08
same,# Genes in Overlap (k),Th17 cells; [14],15
same,k/K,Th17 cells; [14],0.075
same,# Genes in Overlap (k),Th17 cells; [15],16
same,k/K,Th17 cells; [15],0.08
same,# Genes in Overlap (k),Th17 cells; [16],25
same,k/K,Th17 cells; [16],0.125
same,# Genes in Overlap (k),Th17 cells; [17],18
same,k/K,Th17 cells; [17],0.09
same,# Genes in Overlap (k),Th17 cells; [18],19
same,k/K,Th17 cells; [18],0.095
same,# Genes in Overlap (k),Th17 cells; [19],17
same,k/K,Th17 cells; [19],0.085
same,# Genes in Overlap (k),Th17 cells; [20],17
same,k/K,Th17 cells; [20],0.085
